Structures can show the parent of a compound that is named as a salt.
What was measured:
[1] = tested on: Venturia inaequalis; assay: Venturia test (apples)/preventive; settings: for Efficacy in % found: 10 days after inoculation
Protocol: After the spray coating has dried on, the plants are inoculated with an aqueous conidia suspension of the causal agent of apple scab (Venturia inaequalis) and then remain for 1 day in an incubation cabinet at approximately 20° C. and a relative atmospheric humidity of 100%. The plants are then placed in a greenhouse at approximately 21° C. and a relative atmospheric humidity of approximately 90%.
The test is evaluated 10 days after the inoculation.

[2] = tested on: Phytophthora infestans; assay: whole plant or invertebrate; format: in vivo; settings: for Efficacy in % found: 3 days after inoculation
[3] = tested on: Pyrenophora teres; assay: Pyrenophora teres-test (barley)/preventive; format: in vivo; settings: Table 14; 250 ppm a.i.; 8 days after inoculation
[4] = tested on: Septoria tritici; assay: Septoria tritici-test (wheat)/preventive; format: in vivo; settings: Table 17, 21 days after inoculation
[5] = tested on: Botrytis cinerea; assay: Botrytis test (beans)/preventive; settings: Table 7, size of lesions 2 days after inoculation
Protocol: After the spray coating has dried on, 2 small pieces of agar covered with growth of Botrytis cinerea are placed on each leaf. The inoculated plants are placed in a darkened chamber at 20° C. and a relative atmospheric humidity of 100%.
2 days after the inoculation, the size of the lesions on the leaves is evaluated.

[6] = tested on: Sphaerotheca fuliginea; assay: Sphaerotheca test (cucumbers)/preventive; format: in vivo
[7] = tested on: Alternaria solani; assay: Alternaria test (tomatoes)/preventive; format: in vivo; settings: 3 days after inoculation; for Efficacy in % found: 50 ppm a.i.
[8] = tested on: gram-positive, gram-negative bacteria and tubercule bacillus; settings: according to U.S. Pat. No. 3,849,398; cited from earlier work
[9] = tested on: parasites on animals, such as pin worm; settings: according to U.S. Pat. No. 3,849,398; cited from earlier work
[10] = Venturia inaequalis, 240 h, read-out: Efficacy in % found
[11] = Phytophthora infestans, topical, 72 h, read-out: Efficacy in % found
[12] = Table 18, 100 ppm a.i., 7 days after inoculation
[13] = Table 19, 20 ppm a.i., 7 days after inoculation

Question: With `O=C(NCc1ncc(C(F)(F)F)cc1Cl)c1c(Cl)cccc1Cl` [F143, fluopicolide] as the compound, how does the “Efficacy in % found” value ([1]; Table 22, 50 ppm a.i.) read?
Answer: 0%

Question: And the “Efficacy in % found” value ([2]; Table 10, 5 ppm a.i.)?
Answer: 21%

Question: With `N#Cc1c(Cl)c(Cl)c(Cl)c(C#N)c1Cl` [F155, chlorothalonil] as the compound, how does the “Efficacy in % found” value [3] read?
Answer: 50%

Question: And the “Efficacy in % found” value ([4]; 125 ppm a.i.)?
Answer: 57%

Question: And the pest or weed control at 10 ppm [1, 10]?
Answer: 4%

Question: What about the pest or weed control at 20 ppm [2, 11] of the same compound?
Answer: 0%

Question: Which results are given for `N#Cc1ccccc1NC(=O)c1snc(Cl)c1Cl` [F187, isotianil]?
Answer: Efficacy in % found ([4]; 250 ppm a.i.): 29%; Efficacy in % found ([4]; 500 ppm a.i.): 29%; Efficacy in % found ([5]; 125 ppm a.i.): 40%; Efficacy in % found ([1]; Table 21, 50 ppm a.i.): 0%; Efficacy in % found ([6]; Table 20, 100 ppm a.i., 7 days after inoculation): 20%; Efficacy in % found ([7]; Table 4): 18%

Question: What does the source list for `C#CCOc1ccc(CCNC(=O)C(OCC#C)c2ccc(Cl)cc2)cc1OC` (stereo not drawn) [F206, mandipropamid]?
Answer: Efficacy in % found ([2]; Table 10, 0.25 ppm a.i.): 47%; Efficacy in % found [6, 12]: 13%

Question: For `CCCOC(=O)NCCCN(C)C` [F220, propamocarb hydrochloride], which pest or weed control at 250 ppm [1, 10] is on record?
Answer: 0%

Question: And the pest or weed control at 500 ppm [2, 11]?
Answer: 7%

Question: And the pest or weed control at 500 ppm ([6]; Podosphaera fuliginea, 168 h, Table 20, 500 ppm a.i., 7 days after inoculation, read-out: Efficacy in % found)?
Answer: 10%

Question: And the pest or weed control at 250 ppm ([7]; Alternaria solani, topical, 72 h, Table 4, 250 ppm a.i., read-out: Efficacy in % found)?
Answer: 12%

Question: For `COCC(=O)N(c1c(C)cccc1C)C(C)C(=O)OC` (stereo not drawn) [F241, metalaxyl], which “Efficacy in % found” value ([1]; Table 22, 50 ppm a.i.) is on record?
Answer: 0%

Question: With `COCC(=O)N(c1c(C)cccc1C)[C@H](C)C(=O)OC` [F242, metalaxyl-M] as the compound, how does the “Efficacy in % found” value ([1]; Table 22, 50 ppm a.i.) read?
Answer: 0%

Question: And the “Efficacy in % found” value [6, 12]?
Answer: 13%

Question: With `N#Cc1c[nH]cc1-c1cccc2c1OC(F)(F)O2` [F248, fludioxonil] as the compound, how does the “Efficacy in % found” value ([5]; 2.5 ppm a.i.) read?
Answer: 26%

Question: And the pest or weed control at 50 ppm [1, 10]?
Answer: 0%

Question: And the pest or weed control at 100 ppm ([6]; Podosphaera fuliginea, 168 h, read-out: Efficacy in % found)?
Answer: 30%

Question: Which “Efficacy in % found” value ([1]; Table 23, 25 ppm a.i.) does the source give for `Cn1c(=O)c2sc3c(=O)n(C)c(=O)c3sc2c1=O` [F319, 2,6-dimethyl-1H,5H-[1,4]dithiino[2,3-c:5,6-c′]dipyrrole-1,3,5,7(2H,6H)-tetrone] here?
Answer: 38%

Question: And the “Efficacy in % found” value ([2]; Table 11, 50 ppm a.i.)?
Answer: 5%

Question: And the “Efficacy in % found” value ([6]; Table 19, 50 ppm a.i., 7 days after inoculation)?
Answer: 0%

Question: What about the “Efficacy in % found” value ([7]; Table 2) of the same compound?
Answer: 5%

Question: Which antibacterial activity [8] does the source give for `CNCC(=O)NC(CO)C(=O)NC1C(C(N)=O)OC(n2ccc(N)nc2=O)C(O)C1O` [gougerotin, 1-(4-Amino-2-oxo-1(2H)-pyrimidinyl)-1,4-dideoxy-4-[[N—(N-methylglycyl)-D-seryl]amino]-b-D-glucopyranuronamide] here?
Answer: weak antibacterial activity

Question: What about the parasiticidal action [9] of the same compound?
Answer: parasiticidal action

Question: Which “Efficacy in % found” value ([1]; Table 22, 50 ppm a.i.) does the source give for fosetyl-aluminium [F281] here?
Answer: 0%

Question: What about the “Efficacy in % found” value ([2]; Table 10, 50 ppm a.i.) of the same compound?
Answer: 55%

Question: What about the “Efficacy in % found” value [6, 12] of the same compound?
Answer: 13%

Question: And the “Efficacy in % found” value ([7]; Table 3)?
Answer: 15%

Question: What does the source list for mancozeb [F174]?
Answer: Efficacy in % found ([1]; Table 23, 10 ppm a.i.): 0%; Efficacy in % found ([2]; Table 11, 20 ppm a.i.): 0%; Efficacy in % found [6, 13]: 0%

Question: Which “Efficacy in % found” value ([1]; Table 22, 50 ppm a.i.) does the source give for phosphorous acid and its salts [F298] here?
Answer: 0%

Question: What about the “Efficacy in % found” value ([2]; Table 10, 500 ppm a.i.) of the same compound?
Answer: 76%

Question: With propineb [F180] as the compound, how does the “Efficacy in % found” value ([1]; Table 23, 10 ppm a.i.) read?
Answer: 81%

Question: What about the “Efficacy in % found” value ([2]; Table 11, 20 ppm a.i.) of the same compound?
Answer: 8%

Question: And the “Efficacy in % found” value [6, 13]?
Answer: 0%

— US20150359220A1, “COMPOSITIONS COMPRISING GOUGEROTIN AND A FUNGICIDE” (BAYER CROPSCIENCE LP, priority 2013, published 2015)
